Measured values from ChEMBL document CHEMBL5463729, “Data for DCP probe BAY 1753011” (2023).

Columns and labels:
[1] = biological target: Mitogen-activated protein kinase kinase kinase 5 (Homo sapiens) (UniProt Q99683); assay: Inhibition of ASK1(h) at 10.0 µM in the Eurofins Kinase panel; details: Compound concentration 10.0 uM
[2] = biological target: CDC7/Cyclin B1 (Homo sapiens) (UniProt P14635+O00311); assay: Inhibition of Cdc7/cyclinB1(h) at 10.0 µM in the Eurofins Kinase panel; format: protein-complex assay; details: Compound concentration 10.0 uM
[3] = biological target: Cyclin-dependent kinase 2/cyclin E1 (Homo sapiens) (UniProt P24864+P24941); assay: Inhibition of CDK2/cyclinE(h) at 10.0 µM in the Eurofins Kinase panel; format: protein-complex assay; details: Compound concentration 10.0 uM
[4] = biological target: CDK4/Cyclin D3 (Homo sapiens) (UniProt P11802+P30281); assay: Inhibition of CDK4/cyclinD3(h) at 10.0 µM in the Eurofins Kinase panel; format: protein-complex assay; details: Compound concentration 10.0 uM
[5] = biological target: Serine/threonine-protein kinase DCLK3 (Homo sapiens) (UniProt Q9C098); assay: Inhibition of DCAMKL3(h) at 10.0 µM in the Eurofins Kinase panel; details: Compound concentration 10.0 uM
[6] = biological target: G protein-coupled receptor kinase 3 (Homo sapiens) (UniProt P35626); assay: Inhibition of GRK3(h) at 10.0 µM in the Eurofins Kinase panel; details: Compound concentration 10.0 uM
[7] = biological target: Tyrosine-protein kinase HCK (Homo sapiens) (UniProt P08631); assay: Inhibition of Hck(h) activated at 10.0 µM in the Eurofins Kinase panel; details: Compound concentration 10.0 uM
[8] = biological target: Homeodomain-interacting protein kinase 1 (Homo sapiens) (UniProt Q86Z02); assay: Inhibition of HIPK1(h) at 10.0 µM in the Eurofins Kinase panel; details: Compound concentration 10.0 uM
[9] = biological target: Homeodomain-interacting protein kinase 4 (Homo sapiens) (UniProt Q8NE63); assay: Inhibition of HIPK4(h) at 10.0 µM in the Eurofins Kinase panel; details: Compound concentration 10.0 uM
[10] = biological target: Inhibitor of nuclear factor kappa-B kinase subunit epsilon (Homo sapiens) (UniProt Q14164); assay: Inhibition of IKKepsilon(h) at 10.0 µM in the Eurofins Kinase panel; details: Compound concentration 10.0 uM
[11] = biological target: Interleukin-1 receptor-associated kinase 4 (Homo sapiens) (UniProt Q9NWZ3); assay: Inhibition of IRAK4(h) at 10.0 µM in the Eurofins Kinase panel; details: Compound concentration 10.0 uM
[12] = biological target: Leukocyte tyrosine kinase receptor (Homo sapiens) (UniProt P29376); assay: Inhibition of LTK(h) at 10.0 µM in the Eurofins Kinase panel; details: Compound concentration 10.0 uM
[13] = biological target: Mitogen-activated protein kinase kinase kinase 2 (Homo sapiens) (UniProt Q9Y2U5); assay: Inhibition of MEKK2(h) at 10.0 µM in the Eurofins Kinase panel; details: Compound concentration 10.0 uM
[14] = biological target: Myosin light chain kinase (Homo sapiens) (UniProt Q32MK0); assay: Inhibition of MLCK(h) at 10.0 µM in the Eurofins Kinase panel; details: Compound concentration 10.0 uM
Myosin light chain kinase (Homo sapiens), sequence (Q32MK0 whole entry): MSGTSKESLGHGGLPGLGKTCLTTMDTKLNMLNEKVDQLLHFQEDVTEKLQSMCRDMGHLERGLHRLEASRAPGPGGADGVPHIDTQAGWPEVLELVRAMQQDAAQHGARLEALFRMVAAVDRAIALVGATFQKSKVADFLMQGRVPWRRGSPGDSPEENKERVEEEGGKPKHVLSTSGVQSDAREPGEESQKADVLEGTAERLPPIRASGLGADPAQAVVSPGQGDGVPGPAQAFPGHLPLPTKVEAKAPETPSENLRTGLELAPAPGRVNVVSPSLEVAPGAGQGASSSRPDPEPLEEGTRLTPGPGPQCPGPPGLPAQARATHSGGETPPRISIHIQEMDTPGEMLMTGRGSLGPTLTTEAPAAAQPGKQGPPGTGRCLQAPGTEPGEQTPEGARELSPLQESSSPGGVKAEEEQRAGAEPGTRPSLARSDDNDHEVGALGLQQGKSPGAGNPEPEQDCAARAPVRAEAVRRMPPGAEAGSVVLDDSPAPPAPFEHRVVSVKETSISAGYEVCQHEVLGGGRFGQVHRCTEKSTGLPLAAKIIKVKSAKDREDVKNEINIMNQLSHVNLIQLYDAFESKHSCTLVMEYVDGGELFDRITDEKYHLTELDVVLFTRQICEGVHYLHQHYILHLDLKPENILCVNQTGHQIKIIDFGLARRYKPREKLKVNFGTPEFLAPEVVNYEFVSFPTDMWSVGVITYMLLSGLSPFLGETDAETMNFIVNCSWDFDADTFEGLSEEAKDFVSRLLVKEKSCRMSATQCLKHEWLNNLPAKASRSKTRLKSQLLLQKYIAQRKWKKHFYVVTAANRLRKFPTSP

[15] = biological target: Mitogen-activated protein kinase kinase kinase 9 (Homo sapiens) (UniProt P80192); assay: Inhibition of MLK1(h) at 10.0 µM in the Eurofins Kinase panel; details: Compound concentration 10.0 uM
Mitogen-activated protein kinase kinase kinase 9 (Homo sapiens), sequence (P80192 whole entry, looked up): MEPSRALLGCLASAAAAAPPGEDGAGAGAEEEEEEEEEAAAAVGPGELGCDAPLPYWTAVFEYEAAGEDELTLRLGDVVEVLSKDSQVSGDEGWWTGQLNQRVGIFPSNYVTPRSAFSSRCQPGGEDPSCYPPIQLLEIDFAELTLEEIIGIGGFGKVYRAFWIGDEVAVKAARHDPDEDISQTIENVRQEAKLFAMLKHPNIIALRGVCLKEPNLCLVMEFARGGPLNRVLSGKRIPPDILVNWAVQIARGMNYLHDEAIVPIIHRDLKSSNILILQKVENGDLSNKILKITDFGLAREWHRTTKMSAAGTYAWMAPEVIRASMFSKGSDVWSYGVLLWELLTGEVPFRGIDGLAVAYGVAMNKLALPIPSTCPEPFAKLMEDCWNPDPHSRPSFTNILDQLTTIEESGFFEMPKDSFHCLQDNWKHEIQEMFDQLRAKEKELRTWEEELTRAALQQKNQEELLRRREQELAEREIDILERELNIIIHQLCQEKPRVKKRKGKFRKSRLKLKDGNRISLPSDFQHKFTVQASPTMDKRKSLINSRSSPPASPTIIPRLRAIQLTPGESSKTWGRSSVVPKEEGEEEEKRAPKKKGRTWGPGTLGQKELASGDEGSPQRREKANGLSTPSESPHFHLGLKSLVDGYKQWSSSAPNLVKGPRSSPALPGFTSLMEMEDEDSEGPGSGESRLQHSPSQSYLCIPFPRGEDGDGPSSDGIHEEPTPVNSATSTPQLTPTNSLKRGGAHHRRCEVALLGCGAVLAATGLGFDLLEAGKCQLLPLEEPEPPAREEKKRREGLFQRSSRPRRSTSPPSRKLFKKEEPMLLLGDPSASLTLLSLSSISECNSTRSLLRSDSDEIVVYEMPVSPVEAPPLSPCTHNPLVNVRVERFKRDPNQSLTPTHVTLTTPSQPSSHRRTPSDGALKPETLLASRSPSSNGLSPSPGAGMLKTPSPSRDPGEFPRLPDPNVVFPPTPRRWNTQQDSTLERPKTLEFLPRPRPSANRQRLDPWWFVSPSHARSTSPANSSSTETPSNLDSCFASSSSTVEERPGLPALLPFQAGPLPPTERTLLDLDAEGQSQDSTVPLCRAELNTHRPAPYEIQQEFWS

[16] = biological target: Muscle, skeletal receptor tyrosine-protein kinase (Homo sapiens) (UniProt O15146); assay: Inhibition of MuSK(h) at 10.0 µM in the Eurofins Kinase panel; details: Compound concentration 10.0 uM
[17] = biological target: Serine/threonine-protein kinase pim-1 (Homo sapiens) (UniProt P11309); assay: Inhibition of Pim-1(h) at 10.0 µM in the Eurofins Kinase panel; details: Compound concentration 10.0 uM
[18] = biological target: Protein kinase C epsilon type (Homo sapiens) (UniProt Q02156); assay: Inhibition of PKCepsilon(h) at 10.0 µM in the Eurofins Kinase panel; details: Compound concentration 10.0 uM
Protein kinase C epsilon type (Homo sapiens), sequence (Q02156 whole entry): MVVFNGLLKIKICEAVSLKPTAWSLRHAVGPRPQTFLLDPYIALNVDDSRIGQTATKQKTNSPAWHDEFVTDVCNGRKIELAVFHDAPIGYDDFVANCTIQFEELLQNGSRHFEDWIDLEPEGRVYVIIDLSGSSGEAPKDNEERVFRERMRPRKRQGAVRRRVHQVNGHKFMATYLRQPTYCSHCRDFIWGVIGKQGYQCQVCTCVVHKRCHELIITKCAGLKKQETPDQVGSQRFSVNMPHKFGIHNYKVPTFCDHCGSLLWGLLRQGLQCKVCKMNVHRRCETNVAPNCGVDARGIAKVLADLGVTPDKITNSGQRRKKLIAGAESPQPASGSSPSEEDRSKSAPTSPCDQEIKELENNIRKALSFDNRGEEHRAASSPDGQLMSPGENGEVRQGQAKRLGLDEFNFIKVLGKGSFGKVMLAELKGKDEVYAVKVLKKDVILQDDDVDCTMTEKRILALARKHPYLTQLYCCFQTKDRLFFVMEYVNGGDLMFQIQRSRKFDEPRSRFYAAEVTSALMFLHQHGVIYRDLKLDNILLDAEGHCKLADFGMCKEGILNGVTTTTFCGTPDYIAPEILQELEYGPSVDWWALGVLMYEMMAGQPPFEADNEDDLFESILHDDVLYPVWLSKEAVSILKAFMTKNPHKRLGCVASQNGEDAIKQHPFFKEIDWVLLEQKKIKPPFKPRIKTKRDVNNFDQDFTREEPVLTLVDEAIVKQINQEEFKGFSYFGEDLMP

[19] = biological target: Serine/threonine-protein kinase D1 (Homo sapiens) (UniProt Q15139); assay: Inhibition of PKCmu(h) at 10.0 µM in the Eurofins Kinase panel; details: Compound concentration 10.0 uM
Serine/threonine-protein kinase D1 (Homo sapiens), sequence (Q15139 whole entry): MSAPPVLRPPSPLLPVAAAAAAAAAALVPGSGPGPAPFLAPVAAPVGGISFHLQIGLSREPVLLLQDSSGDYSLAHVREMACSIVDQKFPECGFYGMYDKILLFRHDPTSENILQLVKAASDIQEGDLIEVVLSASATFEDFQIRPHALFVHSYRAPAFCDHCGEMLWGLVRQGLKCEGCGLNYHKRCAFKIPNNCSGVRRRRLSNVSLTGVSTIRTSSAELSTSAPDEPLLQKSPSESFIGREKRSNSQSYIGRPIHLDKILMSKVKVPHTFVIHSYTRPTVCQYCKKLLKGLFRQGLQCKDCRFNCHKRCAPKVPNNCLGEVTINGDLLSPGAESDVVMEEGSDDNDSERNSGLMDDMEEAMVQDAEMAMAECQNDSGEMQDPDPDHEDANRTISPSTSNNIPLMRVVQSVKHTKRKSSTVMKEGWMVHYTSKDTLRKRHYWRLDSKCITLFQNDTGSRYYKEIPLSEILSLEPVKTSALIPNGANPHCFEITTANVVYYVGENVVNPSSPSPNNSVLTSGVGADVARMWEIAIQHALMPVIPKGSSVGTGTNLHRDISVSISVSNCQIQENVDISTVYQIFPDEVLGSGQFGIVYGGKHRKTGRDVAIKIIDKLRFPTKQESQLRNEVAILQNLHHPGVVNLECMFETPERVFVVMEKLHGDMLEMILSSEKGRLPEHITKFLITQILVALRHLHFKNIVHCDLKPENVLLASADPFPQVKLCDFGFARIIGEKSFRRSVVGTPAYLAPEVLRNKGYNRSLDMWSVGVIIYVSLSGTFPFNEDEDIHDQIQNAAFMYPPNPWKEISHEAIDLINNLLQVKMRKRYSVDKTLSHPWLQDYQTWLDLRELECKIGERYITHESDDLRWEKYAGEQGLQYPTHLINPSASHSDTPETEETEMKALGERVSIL

[20] = biological target: Serine/threonine-protein kinase PLK4 (Homo sapiens) (UniProt O00444); assay: Inhibition of Plk4(h) at 10.0 µM in the Eurofins Kinase panel; details: Compound concentration 10.0 uM
[21] = biological target: Serine/threonine-protein kinase SIK2 (Homo sapiens) (UniProt Q9H0K1); assay: Inhibition of SIK2(h) at 10.0 µM in the Eurofins Kinase panel; details: Compound concentration 10.0 uM
Serine/threonine-protein kinase SIK2 (Homo sapiens), sequence (Q9H0K1 whole entry, looked up): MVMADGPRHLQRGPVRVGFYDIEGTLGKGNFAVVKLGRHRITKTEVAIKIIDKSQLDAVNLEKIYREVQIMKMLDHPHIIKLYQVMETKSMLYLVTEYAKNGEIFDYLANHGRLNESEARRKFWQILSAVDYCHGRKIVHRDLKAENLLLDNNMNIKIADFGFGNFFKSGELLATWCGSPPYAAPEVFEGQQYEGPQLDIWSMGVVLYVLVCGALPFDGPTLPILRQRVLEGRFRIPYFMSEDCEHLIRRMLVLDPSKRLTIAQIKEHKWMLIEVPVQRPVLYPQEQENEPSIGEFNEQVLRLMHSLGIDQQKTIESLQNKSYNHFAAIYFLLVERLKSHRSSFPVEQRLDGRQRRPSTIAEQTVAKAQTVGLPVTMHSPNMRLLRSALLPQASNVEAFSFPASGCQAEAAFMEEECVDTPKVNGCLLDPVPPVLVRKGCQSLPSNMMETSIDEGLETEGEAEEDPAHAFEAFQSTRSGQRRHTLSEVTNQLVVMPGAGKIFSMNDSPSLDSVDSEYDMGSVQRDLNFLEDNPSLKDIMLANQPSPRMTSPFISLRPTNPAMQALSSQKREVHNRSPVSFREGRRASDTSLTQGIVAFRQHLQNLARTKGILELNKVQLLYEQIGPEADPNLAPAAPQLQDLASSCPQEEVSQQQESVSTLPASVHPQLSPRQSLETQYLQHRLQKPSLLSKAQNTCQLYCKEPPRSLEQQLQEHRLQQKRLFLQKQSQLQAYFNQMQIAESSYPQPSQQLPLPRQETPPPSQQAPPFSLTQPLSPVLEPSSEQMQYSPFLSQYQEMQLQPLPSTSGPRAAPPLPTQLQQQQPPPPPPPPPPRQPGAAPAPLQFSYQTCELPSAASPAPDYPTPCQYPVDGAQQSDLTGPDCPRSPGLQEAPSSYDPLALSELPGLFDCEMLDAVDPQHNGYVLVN

ATR/ATRIP (Homo sapiens) = ATR/ATRIP (Homo sapiens) (UniProt Q13535+Q8WXE1); assay: Inhibition of ATR/ATRIP(h) at 10.0 µM in the Eurofins Kinase panel; format: protein-complex assay; details: Compound concentration 10.0 uM
[22] = biological target: T1, 5-hydroxytryptamine receptor 1A (Homo sapiens) (UniProt P08908); details: Compound concentration 10.0 uM
T1 sequence (whole entry): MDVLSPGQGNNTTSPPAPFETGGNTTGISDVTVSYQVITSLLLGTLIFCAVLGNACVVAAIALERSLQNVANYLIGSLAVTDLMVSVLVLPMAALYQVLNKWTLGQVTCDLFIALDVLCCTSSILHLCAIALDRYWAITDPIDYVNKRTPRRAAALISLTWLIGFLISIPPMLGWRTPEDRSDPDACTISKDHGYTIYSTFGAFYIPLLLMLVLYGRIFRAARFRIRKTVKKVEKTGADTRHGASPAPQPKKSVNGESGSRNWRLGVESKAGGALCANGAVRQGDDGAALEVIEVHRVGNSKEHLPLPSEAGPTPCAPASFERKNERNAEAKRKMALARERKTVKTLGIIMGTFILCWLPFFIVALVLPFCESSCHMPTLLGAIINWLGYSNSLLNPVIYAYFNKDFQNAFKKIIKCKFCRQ

[23] = biological target: Kappa-type opioid receptor (Homo sapiens, UniProt P41145); details: Compound concentration 10.0 uM
Kappa-type opioid receptor, sequence (P41145 whole entry): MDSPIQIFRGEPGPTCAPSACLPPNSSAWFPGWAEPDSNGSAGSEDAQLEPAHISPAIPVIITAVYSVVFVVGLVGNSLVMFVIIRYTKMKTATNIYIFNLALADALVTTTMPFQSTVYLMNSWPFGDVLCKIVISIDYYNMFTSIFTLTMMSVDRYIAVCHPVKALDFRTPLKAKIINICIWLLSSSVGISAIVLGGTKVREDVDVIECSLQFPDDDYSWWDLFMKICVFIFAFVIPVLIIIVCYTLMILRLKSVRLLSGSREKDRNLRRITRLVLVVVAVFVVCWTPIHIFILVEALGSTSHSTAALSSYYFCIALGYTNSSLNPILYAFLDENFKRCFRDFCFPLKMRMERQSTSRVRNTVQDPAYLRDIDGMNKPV

[24] = biological target: T2, Alpha-2B adrenergic receptor (Homo sapiens) (UniProt P18089); details: Compound concentration 10.0 uM
T2 sequence (whole entry): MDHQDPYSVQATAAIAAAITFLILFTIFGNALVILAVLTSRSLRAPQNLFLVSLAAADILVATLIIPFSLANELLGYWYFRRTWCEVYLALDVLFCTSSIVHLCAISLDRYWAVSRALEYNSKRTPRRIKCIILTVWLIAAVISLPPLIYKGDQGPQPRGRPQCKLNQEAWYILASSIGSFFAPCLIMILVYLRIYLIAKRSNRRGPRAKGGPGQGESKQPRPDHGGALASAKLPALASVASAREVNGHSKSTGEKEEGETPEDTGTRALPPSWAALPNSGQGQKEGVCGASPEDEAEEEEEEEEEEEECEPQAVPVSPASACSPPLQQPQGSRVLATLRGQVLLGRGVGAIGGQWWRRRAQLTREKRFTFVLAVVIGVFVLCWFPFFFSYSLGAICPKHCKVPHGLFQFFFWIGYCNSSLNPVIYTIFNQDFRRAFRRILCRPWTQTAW

[25] = biological target: Insulin receptor (Homo sapiens) (UniProt P06213); details: Rattus norvegicus; Compound concentration 10.0 uM

Compound	inhibition [1]	inhibition [2]	inhibition [3]	inhibition [4]	inhibition [5]	inhibition [6]	inhibition [7]	inhibition [8]	inhibition [9]	inhibition [10]	inhibition [11]	inhibition [12]	inhibition [13]	inhibition [14]	inhibition [15]	inhibition [16]	inhibition [17]	inhibition [18]	inhibition [19]	inhibition [20]	other results
O=c1n(Cc2cncn2-c2cccc(Cl)c2)nc(-c2ccc(Cl)cc2)n1C[C@H](O)C(F)(F)F	-1.47%	3.68%	3.43%	7.51%	-6.07%	-3.13%	-9.4%	1.31%	4.55%	0.02%	-1.29%	5.77%	9.53%	1.74%	-1.25%	0.19%	6.13%	11%	5.31%	10.6%	inhibition [21]: 1.82%; inhibition (ATR/ATRIP (Homo sapiens)): 10.2%; inhibition [22]: 33.3%; inhibition [23]: 3.83%; inhibition [24]: 0.1%; inhibition [25]: 1%
C[C@H](O)c1nc(Cn2nc(-c3ccc(Cl)cc3)n(C[C@H](O)C(F)(F)F)c2=O)nn1-c1cccc(Cl)c1 [PECAVAPTAN]	-8.63%	9.78%	-0.04%	5.58%	-4.82%	2.8%	-3.97%	-2.92%	-3.59%	3.03%	3.56%	4.2%	7.54%	1.69%	3.5%	-2.36%	0.99%	19.1%	-6.51%	-5.71%	inhibition [21]: -3.07%; inhibition (ATR/ATRIP (Homo sapiens)): -5.29%; inhibition [22]: 46.8%; inhibition [23]: 62.4%; inhibition [24]: 16.1%; inhibition [25]: -1%
